Measurements from patent publication US12448425B2, “Therapeutic peptides” (Board of Regents, The University of Texas System, priority 2019, dated 2025).
Blank lines part the entries; values can stand above or below the compound they belong to. Square brackets hold non-standard residues; d marks the D form. Ends that are not written are not given here. Peptide text beside a SMILES is read from it.

Experiments:
EphB4 = biological target: T1, EphB4 (Homo sapiens, UniProt P54760); experiment: SPR binding of peptides to immobilized EphB4; details: EphB4-coated sensor chips, 25° C.
T1 construct: purchased R&D Systems
T1 sequence (P54760 16-987): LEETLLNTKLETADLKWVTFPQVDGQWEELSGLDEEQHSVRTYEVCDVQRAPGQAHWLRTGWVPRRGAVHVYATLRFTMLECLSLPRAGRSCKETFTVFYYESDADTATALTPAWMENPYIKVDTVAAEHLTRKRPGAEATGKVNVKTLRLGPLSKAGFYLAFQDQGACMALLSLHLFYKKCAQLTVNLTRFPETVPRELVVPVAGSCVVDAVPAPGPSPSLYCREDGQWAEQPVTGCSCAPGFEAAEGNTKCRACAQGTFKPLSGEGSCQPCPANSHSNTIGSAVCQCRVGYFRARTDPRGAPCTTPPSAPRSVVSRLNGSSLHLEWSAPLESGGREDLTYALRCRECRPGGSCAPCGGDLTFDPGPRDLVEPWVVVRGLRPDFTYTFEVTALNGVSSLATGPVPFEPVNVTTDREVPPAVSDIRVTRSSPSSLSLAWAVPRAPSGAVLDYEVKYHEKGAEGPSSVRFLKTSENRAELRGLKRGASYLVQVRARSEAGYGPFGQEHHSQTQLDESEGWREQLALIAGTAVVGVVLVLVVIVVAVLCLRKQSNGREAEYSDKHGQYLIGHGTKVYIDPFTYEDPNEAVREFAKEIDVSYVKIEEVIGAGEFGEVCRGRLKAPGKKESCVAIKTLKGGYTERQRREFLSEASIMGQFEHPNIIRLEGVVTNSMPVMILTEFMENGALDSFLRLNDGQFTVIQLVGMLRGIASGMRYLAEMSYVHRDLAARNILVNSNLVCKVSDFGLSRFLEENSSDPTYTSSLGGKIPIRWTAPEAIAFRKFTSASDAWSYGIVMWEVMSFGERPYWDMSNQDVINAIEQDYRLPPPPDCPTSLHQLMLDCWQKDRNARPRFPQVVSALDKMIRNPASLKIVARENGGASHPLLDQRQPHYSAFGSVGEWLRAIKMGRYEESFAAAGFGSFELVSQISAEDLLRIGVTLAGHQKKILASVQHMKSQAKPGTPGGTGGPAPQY
Experimental: Surface plasmon resonance (SPR) binding and competition assays. A stock solution of EphB4 in PBS (100 μg/mL) was diluted to 25 μg/mL with 10 mM sodium acetate buffer (pH 4.5) and immobilized to CM5 sensor chips using the amine coupling reaction according to manufacturer-provided procedures (BIACore). Briefly, the surfaces of the chips in flow cells (FC)-1 and FC-2 were activated by exposing chips to a mixture of 200 mM N-ethyl-N′-dimethylaminopropyl carbodiimide and 50 mM N-hydroxysuccinimide for 7 min. FC-1 was used as a reference surface and was directly deactivated by injecting 1 M ethanolamine at pH 8.5 for 7 min. FC-2 was injected with 25 μg/mL human or murine EphB4 followed by injection of 1 M ethanolamine to block the remaining activated ester groups on the surface. The chips were allowed to stabilize for at least 2 h in HBSEP running buffer before injection of test analytes.

MDA-HGSC-1 PDX tumor = details: mouse, in vivo
Source text: PDX model of high grade serous ovarian carcinoma (HGSC). Under Institutional Review Board (IRB protocol PA15-0441) and IACUC approval at University of Texas, MD Anderson Cancer Center, patients with high-serous ovarian carcinoma that were being treated by at the MD Anderson Cancer Center were consented for this study. Subcutaneous HGSC-PDX model was established in 4-6 week old female Balb C athymic nude mice (Harlan Laboratories, Indianapolis, Ind.) by implanting one PDX 3×3×3 mm tumor cube (MDA-HGSOC-1 high-grade serous ovarian cancer; generation 9) at the dorsal portion of each mouse. Tumor size was monitored by caliber, and tumor volume was calculated using the formula V(cm^3)=(length×width^2)/2. Mice were randomly assigned to the PBS vehicle control or BIDEN-AP treatment group, 6 mice per group, once tumor size reached ˜100 mm^3 (21 days after implantation). PBS or BIDEN-AP was injected intraperitoneally at […] ([…]), once every other day for a total of 14 doses. At the end of the study (day 49), all mice were euthanized, and tumors were collected, weighted, and snap-frozen in optimal cutting temperature compound with liquid nitrogen, and cryosectioned into 5-μm sections for IHC staining of CD31 and Ki67 markers. […] Cell nuclei were counterstained with DAPI.

[1] = test system: EphB4 on the surface of A2780cp20 cells; type: cell-based, human; details: 1 h
Experimental: Cell-based binding assay. A2780cp20 ovarian cancer cells (1×10^6 cells/mL) were incubated with EFNB2-Fc (20 nM) and BIDEN-AP at concentrations ranging from 0 to 100 μM at 25° C. for 1 h. After washings, EFNB2-Fc bound to the cells were probed with PE-labeled anti-Fc antibody and analyzed by flow cytometry. Binding of BIDEN-AP to A2780cp20 cells was determined by its ability to displace EFNB2-Fc's binding to the tumor cells, measured by decreased PE fluorescence signal. Cells were analyzed in a Cellquest fluorocytometer (BD Bioscience, San Jose, CA). The experiments were run in duplicate.

4T1 cells = experiment: 4T1 i.v. lung metastasis model; parameters: species or system mouse; details: throughout these in vivo studies
Source text: FIGS. 25A-B: Anti-metastatic activity of BIDEN-AP. (FIG. 25A) Representative photographs of lungs from different treatment groups. The normal lung tissue was stained by blue ink. (FIG. 25B) Counts of surface metastatic nodules in the lung by visual inspection. Data are expressed as mean±SD. **p<0.01 (n=10).
BIDEN-AP was given at the same dose and the same schedule as in FIG. 24A. […] Thus, BIDEN-AP is highly anti-metastatic.

A2780cp20 cells = experiment: Internalization of Alexa647-labeled peptides (confocal microscopy); type: cell-based, human
Experimental: FIGS. 2A-C: BIDEN-AP acts as an EphB4 agonist. (FIG. 2A) BIDEN-AP induced phosphorylation of EphB4 and the associated […] (Crk1). After 16 h serum starvation, A2780cp20 cells were incubated with EFNB2-Fc (20 nM), TNYL-RAW (SEQ ID NO: 12) (50 μM), or BIDEN-AP (50 μM) for 30 min or 2 h. The uncropped blots were available at Supplemental FIG. 11. (FIG. 2B) BIDEN-AP inhibited A2780cp20 cell invasion compared to untreated control (CTL). A modified Boyden transwell chamber coated with human defined matrigel was used. Experiments were performed in triplicate. Data are presented as mean±SD. ***p<0.001. (FIG. 2C) Alexa647-BIDEN-AP was internalized via receptor-mediated endocytosis. A2780cp20 cells were incubated at 37° C. with Alexa647-BIDEN-AP (0.05 μM), Alexa647-TNYL-RAW (SEQ ID NO: 12) (0.05 μM), or Alexa647-BIDEN-AP (0.05 μM) plus unlabeled TNYL-RAW (SEQ ID NO: 12) (5 μM, blocking). Alexa647-BIDEN-AP but not Alexa647-TNYL-RAW (SEQ ID NO: 12) was internalized into the A2780cp20 cells.
A2780cp20 cells were incubated at 4° C. with Alexa647-BIDEN-AP (0.05 μM).
Immunofluorescence imaging. A2780cp20 ovarian cancer cells (5×10^5 cells/well) were plated in 4-well chamber slides and treated with Alexa647-labeled BIDEN-AP (50 μM) for 1 h or 2 h. Cells were washed three times with 1×PBS and fixed in freshly prepared fixative containing 3.7% formaldehyde, 0.05% glutaraldehyde, and 0.4% Triton-X-100 in PHEMO buffer (0.068 M PIPES, 0.025 M HEPES, 0.015 M EGTA, 0.003 M MgCl2, and 10% ov/v dimethylsufoxide [DMSO]) for 10 min at room temperature. LysoTracker Green (Cat. L7526; Invitrogen, Carlsbad, CA) was used as a marker of lysosome. The nucleus was stained with Hoechst 33342 (300 nM) at room temperature for 10 min before mounting in Gel Mount mounting medium (Vector Laboratories, Burlingame, CA). Fixed and immunofluorescence-stained cells were imaged using a Zeiss LSM510 Meta laser scanning confocal system (Zeiss, Dublin, CA) configured to a Zeiss Axioplan 2 upright microscope with a CFI Plan Apo Lambda 20× objective lens. Images were obtained from three independent biological replicates.

[2] = Zhang et al., 2011b; cited from earlier work

Kd (EphB4): > 1000 nM
Compound: CC[C@H](C)[C@H](NC(=O)[C@@H]1CCCN1C(=O)CNC(=O)[C@H](CC(N)=O)NC(=O)[C@@H]1CCCN1C(=O)[C@@H](CO)NC(=O)[C@H](Cc1ccccc1)NC(=O)[C@H](CC(C)C)NC(=O)[C@H](Cc1ccc(O)cc1)NC(=O)[C@H](CC(N)=O)NC(=O)[C@@H](N)[C@@H](C)O)C(=O)N[C@@H](C)C(=O)N[C@@H](CCCNC(=N)N)C(=O)N[C@@H](C)C(=O)N[C@@H](Cc1c[nH]c2ccccc12)C(N)=O [B4-006] (H-TNYLF[dS]PNGPIARAW-NH2)

Compound: CC[C@H](C)[C@H](NC(=O)[C@@H]1CCCN1C(=O)CNC(=O)[C@H](CC(N)=O)NC(=O)[C@@H]1CCCN1C(=O)[C@H](CO)NC(=O)[C@H](Cc1ccccc1)NC(=O)[C@H](CC(C)C)NC(=O)[C@@H](Cc1ccc(O)cc1)NC(=O)[C@H](CC(N)=O)NC(=O)[C@@H](N)[C@@H](C)O)C(=O)N[C@@H](C)C(=O)N[C@@H](CCCNC(=N)N)C(=O)N[C@@H](C)C(=O)N[C@@H](Cc1c[nH]c2ccccc12)C(N)=O [BIDEN-AP] (H-TN[dY]LFSPNGPIARAW-NH2; C-terminus assumed)
body weight change vs control group (MDA-HGSC-1 PDX tumor): did not result in body weight change
IC50 [1]: ~1000 nM
tolerability (treatment-related death, body weight) (4T1 cells): no cases of treatment-related death or change in body weight

Compound: Alexa647-BIDEN-AP: BIDEN-AP coupled with Alexa647-NHS (TN[dY]LFSPNGPIARAW; also: Alexa647 label, site not given here)
cellular internalization at 37° C. (A2780cp20 cells): readily internalized
internalization in presence of excess unlabeled TNYL-RAW (A2780cp20 cells; 37° C., blocking): blocked

Compound: Alexa647-TNYL-RAW: TNYL-RAW coupled with Alexa647-NHS (TNYLRAW; also: Alexa647 label, site not given here) [reference compound]
cellular internalization at 37° C. (A2780cp20 cells): excluded

Compound: TNYLFSPNGPIARAW-NH2 (C-terminus assumed) [TNYL-RAW]
area-under-the time curve [AUC] [2]: 29.1 % ID h/mL

Kd (EphB4): 21 nM
Compound: YSA-TNYL-RAW-dimer [B4-003]
